From patent publication US20090104126A1, “Sulfamate Compounds and Uses Thereof” (Solvay Pharmaceuticals GmbH, priority 2007, published 2009)
Like-named read-outs stand apart in the source and are kept apart here. Marks after values point to notes of the source that are not given here.

Key:
[1] = system: STZ-diabetic male Sprague Dawley rats; assay: Diabetic-induced neuropathic pain: warm plate (38° C.) test (warm allodynia) in STZ rats; type: in vivo, rat; details: day 10
[2] = system: STZ-diabetic male Sprague Dawley rats; assay: Diabetic-induced neuropathic pain: cold bath test (cold allodynia) in STZ rats; type: in vivo, rat; details: day 10
[3] = system: embyronal hippocampal neurons; assay: Effect on neurite outgrowth from hippocampal neurons; type: cell-based, rat; details: for neurite mean length (% of control): 3 days exposure, two cultures normalized
Procedure: Neurite outgrowth is an important parameter to evaluate the neurotrophic potency of a compound. […] The hippocampal neurons from pregnant Wistar female rats were dissociated by trypsinization for 30 min at 37° C. (trypsin-EDTA, Gibco) in presence of DNAse I (Roche, Meylan). The reaction was stopped by addition of medium of Eagle modified by Dulbecco (DMEM; Gibco) with 10% of fetal bovine serum (Gibco). The suspension was triturated with a 10-ml pipette and using a 21G needle syringe and centrifuged at 350×g for 10 min at room temperature. The resulting pellet was re-suspended in culture medium containing Neurobasal medium (Gibco) with 2% of B27 supplement (Gibco) and 2 mM of glutamine (Gibco). Viable cells were counted in a Neubauer cytometer using the trypan blue exclusion test (Sigma) and seeded on the basis of 30 000 cells per Petri dish (Nunc) precoated with poly-L-lysine (Sigma). Cells were allowed to adhere 2 h and maintained in a humidified incubator at 37° C. in 5% CO2-95% air atmosphere.
After adhesion, vehicle and test compound at different concentrations (1 μM, 3 μM, 10 μM and 30 μM) were added to the medium. BDNF (50 ng/ml, 3.7 nM) was included as positive control for neurite growth. The test compound was tested in two independent cultures in parallel with control and BNDF cultures.
After the 3 days exposure of the neurons to the test compounds, cultures were washed in phosphate-buffered saline (PBS, Gibco) and fixed using 2.5% glutaraldehyde in PBS. Several pictures (˜80) of cells with neurites without any branching were taken per condition using a digital camera (Coolpix 995; Nikon) fixed on the microscope (Nikon, objective 40×). Neurites were outlined on computer screen using imaging software (Image-Pro Plus, France), which automatically calculates the length.

male C57BI/6 mice = assay: Acute in vivo food intake test in mice; details: high caloric diet, 50 mg/kg/day oral gavage twice daily for 3 days, day 3
Procedure: The studies were carried out in male C57BI/6 mice (n=12 per group). The mice were kept on an inverted 12/12 h light/dark cycle (lights on 22:00). They were allowed food (high caloric diet) and water ad libitum. Food intake and water consumption was measured daily. The test compound of general Formula I was suspended in 1% methyl hydroxyethyl cellulose in water and 0.1% (v/v) of poloxamer 188 and administered by oral gavage at a dose of 50 mg/kg/day twice daily for 3 days. One half of the dose was administered at 8.00-10.00 h; the remaining half of the dose was administered between 14.00-15.00 h.

[4] = target: T1, recombinant human carbonic anhydrase isoenzyme VB (Homo sapiens, UniProt Q9Y2D0); assay: In vitro inhibition of human carbonic anhydrase isoenzyme VB (dansylamide fluorescence); type: biochemical; details: final compound concentration 10 μM
T1 construct: purchased R&D Systems
Procedure: (§1) The test compounds of general Formula I in 96 well microplates were diluted with aqua bidest by using an automatic pipettor (CyBiWell®). From the different dilution plates, aliquots of 20 μl were transferred to the 96 well black assay plates with a pipetting station (Tecan Genesis®). In a second step, 148 μl of potassium phosphate buffer (20 mM, pH 7.4) was added, and as a third step, 20 μl of enzyme solution (1 μM human carbonic anhydrase isoenzyme I from erythrocytes (Sigma-Aldrich) or human carbonic anhydrase II from erythrocytes (Sigma Aldrich), or recombinant human carbonic anhydrase isoenzyme VB (R&D Systems), dissolved in potassium phosphate buffer) incubated for 60 min at room temperature and the fluorescence signal (Tecan Ultra® fluorescence reader; excitation wavelength: 280 nm; emission wavelength: 465 nm) read at the end of the preincubation period (FLU-1). After the preincubation time, 20 μl of aqueous dansylamide solution (1 mM dansylamide (Sigma-Aldrich), dissolved in hydrochloric acid) were added and the fluorescence signal read every 10 min for a period of 60 min at 37° C. For calculation, the fluorescence data of the time point 60 min (FLU-2) were used. The total volume of assay mixture amounted to 208 μl. […] Each microplate also contained blanks without compound and enzyme, controls without compound and ethoxzolamide (final concentration 5×10^-[…]) as validation standard compound. All data reflect single measurements. Data were expressed as % inhibition after calculation by the formula: [formula] […] Concentration action figures were calculated by applying the Prism algorithm for nonlinear regression (curve-fit): sigmoidal dose response with variable slope and the constraints: top: 100 and bottom 0.

mouse = details: for number of deaths after ECS: 20 mice per group, vehicle 1; for ECS intensity administered, mean ± s.e.m.: vehicle 36.5 ± 1.0
Procedure: The method, which detects pro-convulsant or anti-convulsant activity, follows that described by Swinyard et al. (J. Pharmacol. Exp. Ther. 1952, 106, 319-330). Mice were administered ECS (rectangular current, 0.4 s, 50 Hz) via corneal electrodes connected to a constant current shock generator (Ugo Basile: Type 7801).
A group wherein the vehicle is administered orally 60 minutes before the ECS serves a control. Diazepam (8 mg/kg p.o.), administered under the same experimental conditions, served as a positive anti-convulsive reference substance.
If there were also no convulsions in animal no 2, then the current was further increase in the following animals (increases of 10 mA) until the first tonic convulsion was observed. Once the first tonic convulsion was observed, the intensity of ECS was decreased by 5 mA for the next animal and then the intensity was decreased or increased by 5 mA from animal to animal depending on whether or the previous animal convulsed or not. The minimum intensity given was 25 mA and the maximum intensity given was 95 mA. The electroconvulsive shock threshold was determined as the mean current administered in the last 20 mice.
The number of deaths is also recorded approximately 30 minutes after the animal has been tested for convulsions. The test was performed blind. A positive percent change indicates an anticonvulsant effect. A negative percent change indicates a proconvulsant effect.
Quantitative data were analyzed by comparing treated groups with vehicle control using unpaired Student's t tests. Quantal data were analyzed by comparing treated groups with vehicle control using Fisher's Exact Probability tests.

[5] = target: T2, human carbonic anhydrase II from erythrocytes (Homo sapiens, UniProt P00918); assay: In vitro inhibition of human carbonic anhydrase II (dansylamide fluorescence); type: biochemical
T2 construct: human carbonic anhydrase II from erythrocytes (Sigma Aldrich); purchased Sigma Aldrich; host or cells: human erythrocytes
Procedure: as §1

[6] = target: T3, human carbonic anhydrase isoenzyme I from erythrocytes (Homo sapiens, UniProt P00915); assay: In vitro inhibition of human carbonic anhydrase isoenzyme I (dansylamide fluorescence); type: biochemical
T3 construct: human carbonic anhydrase isoenzyme I from erythrocytes (Sigma-Aldrich); purchased Sigma-Aldrich; host or cells: human erythrocytes
Procedure: as §1

[7] = system: embyronal hippocampal neurons; assay: Effect on neurite outgrowth from hippocampal neurons; type: cell-based, rat; details: BDNF 1.85 nM (positive control), 3 days exposure
[8] = final compound concentration 0.1 μM
[9] = final compound concentration 1 μM

T3 sequence (P00915 whole entry): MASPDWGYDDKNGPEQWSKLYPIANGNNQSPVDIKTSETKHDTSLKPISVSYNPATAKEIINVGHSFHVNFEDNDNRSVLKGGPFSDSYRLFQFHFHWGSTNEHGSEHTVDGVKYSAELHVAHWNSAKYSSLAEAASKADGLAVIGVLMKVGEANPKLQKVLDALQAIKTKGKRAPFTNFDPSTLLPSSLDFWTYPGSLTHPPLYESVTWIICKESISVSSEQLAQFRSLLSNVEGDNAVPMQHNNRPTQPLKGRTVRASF
T1 sequence (Q9Y2D0 34-317): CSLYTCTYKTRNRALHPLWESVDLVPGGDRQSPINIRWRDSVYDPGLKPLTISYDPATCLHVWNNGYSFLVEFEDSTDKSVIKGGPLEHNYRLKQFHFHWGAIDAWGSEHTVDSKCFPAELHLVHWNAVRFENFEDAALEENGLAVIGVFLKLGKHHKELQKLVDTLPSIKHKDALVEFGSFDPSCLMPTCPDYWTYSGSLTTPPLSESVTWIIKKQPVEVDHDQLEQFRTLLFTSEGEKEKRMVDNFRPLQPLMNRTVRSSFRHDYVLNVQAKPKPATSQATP

CC1(C)[C@H]2CC[C@H](COS(N)(=O)=O)[C@@H]1C2 [Compound 1, [(1S,2S,5S)-6,6-dimethylbicyclo[3.1.1]hept-2-yl]methyl-sulfamate]
% inhibition (compared to STZ/vehicle group), warm plate test ([1]; 10 mg/kg p.o. 1 h before test): 53% | % inhibition (compared to STZ/vehicle group), warm plate test ([1]; 30 mg/kg p.o. 1 h before test): 59* % | % inhibition (compared to STZ/vehicle group), warm plate test ([1]; 50 mg/kg p.o. 1 h before test): 64* % | % inhibition (compared to STZ/vehicle group), cold bath test ([2]; 10 mg/kg p.o. 1 h before test): 62* % | % inhibition (compared to STZ/vehicle group), cold bath test ([2]; 30 mg/kg p.o. 1 h before test): 58* % | % inhibition (compared to STZ/vehicle group), cold bath test ([2]; 50 mg/kg p.o. 1 h before test): 72* % | neurite mean length (% of control) ([3]; 1 μM): 110.9 % of control | neurite mean length (% of control) ([3]; 3 μM): 108.9 % of control | neurite mean length (% of control) ([3]; 10 μM): 113.2 % of control | neurite mean length (% of control) ([3]; 30 μM): 114.5 % of control | food intake [% of control] (male C57BI/6 mice): 69.4% (day 3) % of control | inhibition at 10 µM [4]: 70% | number of deaths after ECS (mouse; 10 mg/kg p.o. −60 min): 2 | ECS intensity administered, mean ± s.e.m. (mouse; 10 mg/kg p.o. −60 min): 40.0 ± 1.2 mA | number of deaths after ECS (mouse; 30 mg/kg p.o. −60 min): 0 | ECS intensity administered, mean ± s.e.m. (mouse; 30 mg/kg p.o. −60 min): 43.5 ± 1.5 mA | number of deaths after ECS (mouse; 100 mg/kg p.o. −60 min): 1 | ECS intensity administered, mean ± s.e.m. (mouse; 100 mg/kg p.o. −60 min): 88.0 ± 2.1 mA | inhibition at 0.1 µM [5, 8]: 56% | inhibition at 0.1 µM [6, 8]: 85%

CC1(C)[C@@H]2CC[C@@H](COS(N)(=O)=O)[C@H]1C2 [Compound 2, [(1R,2R,5R)-6,6-dimethylbicyclo[3.1.1]hept-2-yl]methyl-sulfamate]
inhibition at 10 µM [4]: 75% | inhibition at 0.1 µM [5, 8]: 33% | inhibition at 0.1 µM [6, 8]: 70%

CC1(C)[C@H]2CC[C@@H](CCOS(N)(=O)=O)[C@@H]1C2 [Compound 3, [(1S,2S,5S)-6,6-dimethylbicyclo[3.1.1]hept-2-yl]ethyl-sulfamate]
% Inhibition [4]: 55% | % Inhibition [5, 8]: 15% | % Inhibition [6, 8]: 28%

CC1(C)[C@H]2CC[C@@H](COS(N)(=O)=O)[C@@H]1C2 [Compound 4, [(1S,2R,5S)-6,6-dimethylbicyclo[3.1.1]hept-2-yl]methylsulfamate]
% Inhibition [4]: 53% | % Inhibition [5, 9]: 72% | % Inhibition [6, 9]: 80%

CN1C(=O)CN=C(c2ccccc2)c2cc(Cl)ccc21 [Diazepam, reference compound]
ECS intensity % change from control (mouse; 8 mg/kg p.o. −60 min): +124% | number of deaths after ECS (mouse; 8 mg/kg p.o. −60 min): 0 | ECS intensity administered, mean ± s.e.m. (mouse; 8 mg/kg p.o. −60 min): 81.8 ± 3.0 mA

(1R,4S)-bicyclo[2.2.1]hept-2-yl-methylsulfamate [Compound 5]
% Inhibition [4]: 41% | % Inhibition [5, 9]: 77% | % Inhibition [6, 9]: 91%

(4S)-bicyclo[2.2.1]hept-5-en-2-ylmethylsulfamate [Compound 6]
% Inhibition [4]: 40% | % Inhibition [5, 9]: 76% | % Inhibition [6, 9]: 94%

B1: BDNF: BDNF (50 ng/ml, 3.7 nM) was included as positive control for neurite growth (protein, UniProt P23560 19-247, looked up)
Neurotrophic factor BDNF …: APMKEANIRGQGGLAYPGVRTHGTLESVNGPKAGSRGLTSLADTFEHVIEELLDEDQKVRPNEENNKDADLYTSRVMLSSQVPLEPPLLFLLEEYKNYLDAANMSMRVRRHSDPARRGELSVCDSISEWVTAADKKTAVDMSGGTVTVLEKVPVSKGQLKQYFYETKCNPMGYTKEGCRGIDKRHWNSQCRTTQSYVRALTMDSKKRIGWRFIRIDTSCVCTLTIKRGR
increase in neurite length normalized by mean control neurite length ([3]; 50 ng/ml BDNF, both cultures normalized): 16.4% | mean increase in neurite length ([3]; 50 ng/ml BDNF, first culture): 24.5 μm | neurite length (mean±SEM) ([3]; 50 ng/ml BDNF, first culture, n=79 (control 105.7±3.2)): 131.6±3.1 μm | mean increase in neurite length ([3]; 50 ng/ml BDNF, second culture): 8.6 μm | neurite length (mean±SEM) ([3]; 50 ng/ml BDNF, second culture, n=82 (control 109.3±3.1)): 118.7±2.8 μm | neurite mean length (% of control) [7]: 116.4 % of control
